Results taken from ChEMBL document CHEMBL1134620, “Synthesis of potential antidipsotropic isoflavones: inhibitors of the mitochondrial monoamine oxidase-aldehyde dehydrogenase pathway” (J Med Chem, 2001).

How the values were obtained:
[1] = biological target: Aldehyde dehydrogenase, mitochondrial (Mesocricetus auratus); test: Inhibition of hamster liver aldehyde dehydrogenase ALDH-2
[2] = test system: Monoamine oxidase (Mesocricetus auratus); test: Inhibition of hamster liver mitochondrial monoamine oxidase MAO
[3] = test system: Aldehyde dehydrogenase, mitochondrial (Mesocricetus auratus); test: Inhibition of hamster liver aldehyde dehydrogenase ALDH-2; No inhibition uM
[4] = biological target: Monoamine oxidase (Mesocricetus auratus)

Work on O=c1c(-c2ccc(O)cc2)coc2cc(OCCCBr)ccc12 yielded an IC50 [1] of 0.26 µM.
With C=CCCCCOc1ccc(-c2coc3cc(OCCCCC=C)ccc3c2=O)cc1 the NI [2] was “No inhibition” and the NI [3] was “No inhibition”.
NCCCCOc1ccc2c(=O)c(-c3ccc(O)cc3)coc2c1 gave an IC50 [4] greater than 9 µM.
With O=C(O)CCCCCOc1ccc2c(=O)cc(-c3ccc(O)cc3)oc2c1 the IC50 [4] was 7 µM.
O=c1c(-c2ccc(OCCCCCCCCCO)cc2)coc2cc(OCCCCCCCCCO)ccc12 was tested, and the NI [2] was “No inhibition” and the NI [3] was “No inhibition”.
C=CCCCCOc1ccc2c(=O)c(-c3ccc(O)cc3)coc2c1 showed an IC50 [4] of 5 µM.
For O=c1c(-c2ccc(O)cc2)coc2cc(OCCCCCCO)ccc12, the IC50 [4] was greater than 9 µM.
COc1cc2ccc(=O)oc2cc1OC [SCOPARONE] was tested, and the NI [2] was “No inhibition” and the NI [3] was “No inhibition”.
For NCCCCCCOc1ccc2c(=O)c(-c3ccc(O)cc3)coc2c1, the IC50 [4] was >> 9 uM.
CC(C)Oc1ccc2c(=O)c(-c3ccc(O)cc3)coc2c1 gave an IC50 [4] of 0.2 µM.
For CC(C)Oc1ccc(-c2coc3cc(OC(C)C)ccc3c2=O)cc1, the NI [2] was “No inhibition” and the NI [3] was “No inhibition”.
For CCCCCCC(Oc1ccc2c(=O)c(-c3ccc(O)cc3)coc2c1)C(=O)OCC (stereo not given), the IC50 [4] was >> 9 uM.
With CCOC(=O)CCCCCOc1ccc2c(=O)c(-c3ccc(O)cc3)coc2c1 the IC50 [4] was 5.3 µM.
CCCCCCOc1ccc(-c2coc3cc(OCCCCCC)ccc3c2=O)cc1 was tested, and the NI [2] was “No inhibition” and the NI [3] was “No inhibition”.
O=C(O)CCCCCCCOc1ccc2c(=O)c(-c3ccc(O)cc3)coc2c1 gave an IC50 [4] of 6.5 µM.
In the case of CCOC(=O)CCCCCOc1ccc(-c2coc3cc(OCCCCCC(=O)OCC)ccc3c2=O)cc1, the NI [2] is reported as “No inhibition” and the NI [3] is reported as “No inhibition”.
O=c1c(-c2ccc(O)cc2)coc2cc(OCCCCCCBr)ccc12 showed an IC50 [1] of 0.3 µM.
In the case of CCCCCCCCCCCCOc1ccc(-c2coc3cc(OCCCCCCCCCCCC)ccc3c2=O)cc1, the NI [2] is reported as “No inhibition” and the NI [3] is reported as “No inhibition”.
O=c1c(-c2ccc(O)cc2)coc2cc(OCCCCCCCCCO)ccc12 gave an IC50 [4] greater than 9 µM.
In the case of CCOC(=O)C(C)Oc1ccc(-c2coc3cc(OC(C)C(=O)OCC)ccc3c2=O)cc1 (stereo not given), the NI [2] is reported as “No inhibition” and the NI [3] is reported as “No inhibition”.
For CCCCC(Oc1ccc2c(=O)c(-c3ccc(O)cc3)coc2c1)C(=O)OCC (stereo not given), the IC50 [4] was >> 9 uM.
Compound CCOC(=O)CCCCOc1ccc2c(=O)c(-c3ccc(O)cc3)coc2c1 has an IC50 [4] greater than 9 µM.
With O=c1c(-c2ccc(O)cc2)coc2cc(OCCCCBr)ccc12 the IC50 [1] was 0.27 µM.
For CCOC(=O)CCCCOc1ccc(-c2coc3cc(OCCCCC(=O)OCC)ccc3c2=O)cc1, the NI [2] was “No inhibition” and the NI [3] was “No inhibition”.
O=C(O)COc1ccc2c(=O)c(-c3ccc(O)cc3)coc2c1 was tested, and the IC50 [4] was >> 9 uM.
In the case of O=C(O)CCCCOc1ccc2c(=O)c(-c3ccc(O)cc3)coc2c1, the IC50 [4] is reported as 5 µM.
